The values that follow come from patent publication EP4678638A1, “NEW E3 UBIQUITIN LIGASE LIGAND, PROTEIN DEGRADATION AGENT AND USE THEREOF” (priority 2023, dated 2024).

This assay relates to H1975. Put plainly: CCK-8 proliferation, NCI-H1975 (H1975). The note with it: Homo sapiens, NCI-H1975; CCK-8; 96 hours; read-out: Inhibitory activity (IC50) on tumor cell proliferation, H1975. Type of assay: cell-based, Human. Here is the method:
The tumor cells used herein were cultured in a cell culture medium listed in table A1 at 37°C in an incubator with 5% CO2. Prior to experimentation, all cell lines used were correctly identified by STR profiling, and tested negative for mycoplasma contamination using a mycoplasma detection kit through routine screenings. Table A1. Tumor cells and cell culture medium used in the present disclosure
IC50 values of the compounds of the present disclosure (including the compounds in Table 1, and compounds of examples) were measured using the Meilun Cell Counting Kit-8 kit from Dalian Meilun Biotech Co., Ltd. Assay details are as follows: tumor cells were seeded in a 96-well plate at a density listed in Table A2. After 24h, 100 µL of the inoculated cells were treated with 0.5µL of the compounds of the present disclosure (including the compounds in Tables 1 and 2, and compounds of examples) at 10 different successively decreasing concentrations (starting at the highest concentration of 10µM; 5-fold serial dilutions). After the cells were treated with the compounds of the present disclosure for a period of time, the cell viability detection reagent was added to the culture medium for cell viability assessment according to the instructions provided with the CCK-8 kit. […] The growth inhibition of the compounds of the present disclosure on cells was plotted by Prism Graphpad software, and the IC50 values of the compounds of the present disclosure were calculated therefrom. […] Seeding protocol and treatment time for tumor cells
In the case of `CN(Cc1ccc(N2CCC(=O)NC2=O)nc1)C1CCN(c2ccc(-c3cc(F)c4c(c3)C(=O)N(C(C(=O)Nc3nccs3)c3ncn5c3CCC5)C4)cc2)CC1` (stereo not shown) [GT-05283, 2-(6,7-dihydro-5H-pyrrolo[1,2-c]imidazol-1-yl)-2-(6-(4-(4-(((6-(2,4-dioxotetrahydropyrimidin-1(2H)-yl)pyridin-3-yl)methyl)(methyl)amino)piperidin-1-yl)phenyl)-4-fluoro-1-oxoisoindolin-2-yl)-N-(thiazol-2-yl)acetamide], the IC50 lay within 1 to 10 nM. Take `O=C1CCN(c2cc(CN3CCN(c4ccc(-c5cc(F)c6c(c5)C(=O)N(C(C(=O)Nc5nccs5)c5ncn7c5CCC7)C6)cc4)CC3)c(F)cn2)C(=O)N1` (stereo not shown) [GT-07378, 2-(6,7-dihydro-5H-pyrrolo[1,2-c]imidazol-1-yl)-2-(6-(4-(4-((2-(2,4-dioxotetrahydropyrimidin-1(2H)-yl)-5-fluoropyridin-4-yl)methyl)piperazin-1-yl)phenyl)-4-fluoro-1-oxoisoindolin-2-yl)-N-(thiazol-2-yl)acetamide]: the IC50 is 1 to 10 nM. For `O=C1CCC(c2ccc(CN3CCN(c4ccc(-c5cc(F)c6c(c5)C(=O)N(C(C(=O)Nc5nccs5)c5ncn7c5CCC7)C6)cc4)CC3)nc2)C(=O)N1` (stereo not shown) [GT-07381, 2-(6,7-dihydro-5H-pyrrolo[1,2-c]imidazol-1-yl)-2-(6-(4-(4-((5-(2,6-dioxopiperidin-3-yl)pyridin-2-yl)methyl)piperazin-1-yl)phenyl)-4-fluoro-1-oxoisoindolin-2-yl)-N-(thiazol-2-yl)acetamide], the IC50 was in the range of 1 to 10 nM.

Take `CN(Cc1cncc(N2CCC(=O)NC2=O)c1)C1CCN(c2ccc(-c3cc(F)c4c(c3)C(=O)N(C(C(=O)Nc3nccs3)c3ncn5c3CCC5)C4)cc2)CC1` (stereo not shown) [GT-07384, 2-(6,7-dihydro-5H-pyrrolo[1,2-c]imidazol-1-yl)-2-(6-(4-(4-(((5-(2,4-dioxotetrahydropyrimidin-1(2H)-yl)pyridin-3-yl)methyl)(methyl)amino)piperidin-1-yl)phenyl)-4-fluoro-1-oxoisoindolin-2-yl)-N-(thiazol-2-yl)acetamide]: the IC50 was in the range of 1 to 10 nM. Consider `O=C1CCC(Nc2cccc(CN3C[C@H]4C[C@@H]3CN4c3ccc(-c4cc(F)c5c(c4)C(=O)N(C(C(=O)Nc4nccs4)c4ncn6c4CCC6)C5)cc3)c2)C(=O)N1` (stereo partly drawn) [GT-06179, 2-(6,7-dihydro-5H-pyrrolo[1,2-c]imidazol-1-yl)-2-(6-(4-((1R,4R)-5-(3-((2,6-dioxopiperidin-3-yl)amino)benzyl)-2,5-diazabicyclo[2.2.1]heptan-2-yl)phenyl)-4-fluoro-1-oxoisoindolin-2-yl)-N-(thiazol-2-yl)acetamide], for which the IC50 was in the range of 10 to 50 nM.

For the molecule `O=C1CCN(c2cncc(CN3CCN(c4ccc(-c5cc(F)c6c(c5)C(=O)N(C(C(=O)Nc5nccs5)c5ncn7c5CCC7)C6)cc4)CC3)c2)C(=O)N1` (stereo not shown) [GT-07380, 2-(6,7-dihydro-5H-pyrrolo[1,2-c]imidazol-1-yl)-2-(6-(4-(4-((5-(2,4-dioxotetrahydropyrimidin-1(2H)-yl)pyridin-3-yl)methyl)piperazin-1-yl)phenyl)-4-fluoro-1-oxoisoindolin-2-yl)-N-(thiazol-2-yl)acetamide], the IC50 is 1 to 10 nM. Under `CN(Cc1ccc(N2CCC(=O)NC2=O)cc1)C1CCN(c2ccc(-c3cc(F)c4c(c3)C(=O)N(C(C(=O)Nc3nccs3)c3ncn5c3CCC5)C4)cc2)CC1` (stereo not shown) [GT-05219, 2-(6,7-dihydro-5H-pyrrolo[1,2-c]imidazol-1-yl)-2-(6-(4-(4-((4-(2,4-dioxotetrahydropyrimidin-1(2H)-yl)benzyl)(methyl)amino)piperidin-1-yl)phenyl)-4-fluoro-1-oxoisoindolin-2-yl)-N-(thiazol-2-yl)acetamide] stands 1 to 10 nM.
